Reference: patent US9796711B2, “Substituted pyrazolo[3,4-b]pyridin-6-carboxylic acids and method of use” (AbbVie S.àr.l., priority 2015, dated 2017)
pEC50: −log10 of the molar value.

Key:
[1] = molecular target: T1, ΔF508-CFTR (Homo sapiens, UniProt P13569, DEL508-508); assay: CFTR cell surface levels using HRP-tagged ΔF508-CFTR expressing CFBE cells, in the presence of a co-corrector; assay type: cell-based; conditions: HRP-tagged ΔF508-CFTR expressing CFBE cells, in the presence of 3 μM co-corrector; for pEC50: read-out: EC50
T1 construct: host or cells: CFBE41o-, doxycycline-inducible
T1 sequence (P13569 with tags, fused parts or gaps DEL508-508): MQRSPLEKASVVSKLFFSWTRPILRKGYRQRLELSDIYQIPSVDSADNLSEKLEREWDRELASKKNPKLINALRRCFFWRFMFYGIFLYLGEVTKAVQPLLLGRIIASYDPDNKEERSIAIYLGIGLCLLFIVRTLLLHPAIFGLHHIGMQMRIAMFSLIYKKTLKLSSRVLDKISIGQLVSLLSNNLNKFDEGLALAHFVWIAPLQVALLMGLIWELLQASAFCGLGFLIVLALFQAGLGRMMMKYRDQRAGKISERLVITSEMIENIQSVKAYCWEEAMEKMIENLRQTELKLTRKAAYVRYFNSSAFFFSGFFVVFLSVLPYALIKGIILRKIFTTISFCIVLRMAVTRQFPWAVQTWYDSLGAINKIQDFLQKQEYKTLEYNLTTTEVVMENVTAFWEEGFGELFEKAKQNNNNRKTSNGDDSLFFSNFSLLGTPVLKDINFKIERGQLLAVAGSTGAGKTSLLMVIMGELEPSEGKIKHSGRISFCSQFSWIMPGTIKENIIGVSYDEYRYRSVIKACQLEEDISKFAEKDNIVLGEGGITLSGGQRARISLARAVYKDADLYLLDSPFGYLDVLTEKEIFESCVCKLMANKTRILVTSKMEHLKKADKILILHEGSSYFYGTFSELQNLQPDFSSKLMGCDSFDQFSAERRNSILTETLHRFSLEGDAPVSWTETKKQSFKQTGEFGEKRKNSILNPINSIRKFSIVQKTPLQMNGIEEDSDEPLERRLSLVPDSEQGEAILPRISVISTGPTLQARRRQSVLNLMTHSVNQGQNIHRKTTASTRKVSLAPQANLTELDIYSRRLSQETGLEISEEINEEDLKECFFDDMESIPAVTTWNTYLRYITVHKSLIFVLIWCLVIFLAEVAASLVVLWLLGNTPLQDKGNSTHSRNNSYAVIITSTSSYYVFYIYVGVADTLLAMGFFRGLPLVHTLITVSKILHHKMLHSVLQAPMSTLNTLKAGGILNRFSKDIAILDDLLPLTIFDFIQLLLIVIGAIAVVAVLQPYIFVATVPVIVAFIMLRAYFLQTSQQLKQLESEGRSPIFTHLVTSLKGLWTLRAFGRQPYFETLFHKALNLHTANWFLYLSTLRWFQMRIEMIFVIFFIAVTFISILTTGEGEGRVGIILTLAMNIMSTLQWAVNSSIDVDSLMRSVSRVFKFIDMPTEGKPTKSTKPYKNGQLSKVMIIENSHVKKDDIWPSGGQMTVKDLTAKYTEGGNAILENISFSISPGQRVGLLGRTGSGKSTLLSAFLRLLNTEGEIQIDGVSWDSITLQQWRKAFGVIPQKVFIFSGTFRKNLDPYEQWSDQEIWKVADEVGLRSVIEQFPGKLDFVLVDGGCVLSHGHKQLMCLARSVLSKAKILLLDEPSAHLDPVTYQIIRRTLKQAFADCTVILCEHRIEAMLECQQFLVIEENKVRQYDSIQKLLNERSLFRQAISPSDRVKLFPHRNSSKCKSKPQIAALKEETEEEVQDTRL
Summary of the method: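 Cells were seeded with 0.5 μg/mL doxycycline and held 68 h at 37 °C. Test compounds plus 3 μM co-corrector (final 0.1% DMSO) were then added for 20 h at 33 °C. Washed cells received HRP substrate, and luminescence was normalized between DMSO and 3 μM co-corrector controls.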

[2] = molecular target: T1, ΔF508-CFTR; assay: CFTR cell surface levels using HRP-tagged ΔF508-CFTR expressing CFBE cells, intrinsic corrector capacity; assay type: cell-based; conditions: for pEC50: read-out: EC50
Summary of the method: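 Here the cells express ΔF508-CFTR with horseradish peroxidase inserted in extracellular loop 4, so only rescued channel at the surface gives luminescent signal. Compounds act on their own, 20 h at the reduced temperature of 33 °C; values are percent activity relative to DMSO and a 3 μM corrector.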

[3] = HRP-tagged ΔF508-CFTR CFBE41o- cells, compounds alone (intrinsic corrector capacity), 20 hours at 33° C., positive control 3 μM corrector
[4] = HRP-tagged ΔF508-CFTR CFBE41o- cells, compounds alone (intrinsic corrector capacity), 20 hours at 33° C.
[5] = HRP-tagged ΔF508-CFTR expressing CFBE cells, intrinsic corrector capacity (no co-corrector), 33° C., 20 hours

| Structure (SMILES) | % Activation [1] [%] | pEC50 [1] | % Activation [2, 3] [%] | pEC50 [2, 4] | % Activation [2, 5] [%] | pEC50 [2, 5] |
| --- | --- | --- | --- | --- | --- | --- |
| CC(C)c1nn(C2CCCCC2)c2nc(C(=O)O)cc(-c3cnc(N(C)C4CCN(C(=O)OC(C)(C)C)CC4)nc3)c12 [compound 374, 4-(2-{[1-(tert-butoxycarbonyl)piperidin-4-yl](methyl)amino}pyrimidin-5-yl)-1-cyclohexyl-3-(propan-2-yl)-1H-pyrazolo[3,4-b]pyridine-6-carboxylic acid] | 297.35 | 6.33 | 114.2 | 6.23 |  |  |
| Cc1nn(-c2ccccc2)c2nc(C(=O)O)cc(OCC3(C)COC3)c12 [compound 375, 3-methyl-4-[(3-methyloxetan-3-yl)methoxy]-1-phenyl-1H-pyrazolo[3,4-b]pyridine-6-carboxylic acid] | 184.1 | 5.78 | 36.645 | 5.48 |  |  |
| COC1CCC(Oc2cc(C(=O)O)nc3c2c(C)nn3-c2ccccc2)CC1 (centres unmarked) [compound 376, 4-[(4-methoxycyclohexyl)oxy]-3-methyl-1-phenyl-1H-pyrazolo[3,4-b]pyridine-6-carboxylic acid] | 289.4 | 5.94 | 109.7 | 5.79 |  |  |
| Cc1nn(-c2ccccc2)c2nc(C(=O)O)cc(OCC(F)C3CCOCC3)c12 (centres unmarked) [compound 377, 4-[2-fluoro-2-(oxan-4-yl)ethoxy]-3-methyl-1-phenyl-1H-pyrazolo[3,4-b]pyridine-6-carboxylic acid] | 295.65 | 5.82 | 95.185 | 5.78 |  |  |
| Cc1nn(-c2ccccc2)c2nc(C(=O)O)cc(OCC3(F)CCN(C)C3)c12 (centres unmarked) [compound 378, 4-[(3-fluoro-1-methylpyrrolidin-3-yl)methoxy]-3-methyl-1-phenyl-1H-pyrazolo[3,4-b]pyridine-6-carboxylic acid] | 140.5 | 5.48 | 14.56 | 5.30 |  |  |
| Cc1nn(-c2ccccc2)c2nc(C(=O)O)cc(OC[C@@H](F)C3CCN(C)CC3)c12 [compound 379, 4-[(2S)-2-fluoro-2-(1-methylpiperidin-4-yl)ethoxy]-3-methyl-1-phenyl-1H-pyrazolo[3,4-b]pyridine-6-carboxylic acid] | 128.5 | 5.30 | 4.874 | 5.30 |  |  |
| Cc1nn(-c2ccccc2)c2nc(C(=O)O)cc(OC[C@H](F)C3CCN(C)CC3)c12 [compound 380, 4-[(2R)-2-fluoro-2-(1-methylpiperidin-4-yl)ethoxy]-3-methyl-1-phenyl-1H-pyrazolo[3,4-b]pyridine-6-carboxylic acid] | 141.7 | 6.02 | 14.735 | 5.30 |  |  |
| Cc1nn(-c2ccccc2)c2nc(C(=O)O)cc(OCC3(F)CCCN(C4COC4)C3)c12 (centres unmarked) [compound 381, 4-{[3-fluoro-1-(oxetan-3-yl)piperidin-3-yl]methoxy}-3-methyl-1-phenyl-1H-pyrazolo[3,4-b]pyridine-6-carboxylic acid] | 182.9 | 5.78 | 17.695 | 5.30 |  |  |
| Cc1nn(-c2ccccc2)c2nc(C(=O)O)cc(OCC3CCC(F)(F)C3)c12 (centres unmarked) [compound 382, 4-[(3,3-difluorocyclopentyl)methoxy]-3-methyl-1-phenyl-1H-pyrazolo[3,4-b]pyridine-6-carboxylic acid] | 268.1 | 5.85 | 80.645 | 5.78 |  |  |
| Cc1nn(-c2ccccc2)c2nc(C(=O)O)cc(OCC(=O)N3CCCCC3)c12 [compound 383, 3-methyl-4-[2-oxo-2-(piperidin-1-yl)ethoxy]-1-phenyl-1H-pyrazolo[3,4-b]pyridine-6-carboxylic acid] | 129.7 | 5.30 | 16.587 | 5.30 |  |  |
| Cc1nn(-c2ccccc2)c2nc(C(=O)O)cc(OCC3(S(C)(=O)=O)CCC3)c12 [compound 384, 4-{[1-(methanesulfonyl)cyclobutyl]methoxy}-3-methyl-1-phenyl-1H-pyrazolo[3,4-b]pyridine-6-carboxylic acid] | 123 | 5.30 | 8.1785 | 5.30 |  |  |
| Cc1nn(-c2ccccc2)c2nc(C(=O)O)cc(OCCN(CC(C)C)C3CC3)c12 [compound 385, 4-{2-[cyclopropyl(2-methylpropyl)amino]ethoxy}-3-methyl-1-phenyl-1H-pyrazolo[3,4-b]pyridine-6-carboxylic acid] | 238.75 | 5.78 | 54.89 | 5.78 |  |  |
| Cc1nn(-c2ccccc2)c2nc(C(=O)O)cc(OCC3(C)CC(F)(F)C3)c12 [compound 386, 4-[(3,3-difluoro-1-methylcyclobutyl)methoxy]-3-methyl-1-phenyl-1H-pyrazolo[3,4-b]pyridine-6-carboxylic acid] | 250.65 | 5.84 | 64.285 | 5.88 |  |  |
| Cc1nn(-c2ccccc2)c2nc(C(=O)O)cc(OCC3(CF)CC3)c12 [compound 387, 4-{[1-(fluoromethyl)cyclopropyl]methoxy}-3-methyl-1-phenyl-1H-pyrazolo[3,4-b]pyridine-6-carboxylic acid] | 224.5 | 5.78 | 65.365 | 5.78 |  |  |
| COCCC1(COc2cc(C(=O)O)nc3c2c(C)nn3-c2ccccc2)CC1 [compound 388, 4-{[1-(2-methoxyethyl)cyclopropyl]methoxy}-3-methyl-1-phenyl-1H-pyrazolo[3,4-b]pyridine-6-carboxylic acid] | 171.6 | 5.83 | 50.555 | 5.78 |  |  |
| Cc1nn(-c2ccccc2)c2nc(C(=O)O)cc(OCC3CCCC3(F)F)c12 (centres unmarked) [compound 389, 4-[(2,2-difluorocyclopentyl)methoxy]-3-methyl-1-phenyl-1H-pyrazolo[3,4-b]pyridine-6-carboxylic acid] | 280.6 | 5.89 | 101.73 | 5.78 |  |  |
| CC(C)Oc1nn(-c2ccccc2)c2nc(C(=O)O)cc(-c3ccc(N4CCOCC4)cc3)c12 [compound 390, 4-[4-(morpholin-4-yl)phenyl]-1-phenyl-3-[(propan-2-yl)oxy]-1H-pyrazolo[3,4-b]pyridine-6-carboxylic acid] | 362 | 6.57 | 177.8 | 6.23 |  |  |
| COCC1CCN(c2cc(C(=O)O)nc3c2c(C(C)C)nn3-c2ccc(F)cc2)CC1 [compound 391, 1-(4-fluorophenyl)-4-[4-(methoxymethyl)piperidin-1-yl]-3-(propan-2-yl)-1H-pyrazolo[3,4-b]pyridine-6-carboxylic acid] | 528.7 | 6.43 | 306.23 | 6.23 |  |  |
| CC(C)c1nn(-c2ccnc(N3CCCC3)c2)c2nc(C(=O)O)cc(-c3ccc(N4CCC(C#N)CC4)cc3)c12 [compound 392, 4-[4-(4-cyanopiperidin-1-yl)phenyl]-3-(propan-2-yl)-1-[2-(pyrrolidin-1-yl)pyridin-4-yl]-1H-pyrazolo[3,4-b]pyridine-6-carboxylic acid] | 519.35 | 6.49 | 302 | 6.46 |  |  |
| COC1CCN(c2cc(C(=O)O)nc3c2c(C(C)C)nn3-c2ccc(F)cc2)CC1 [compound 393, 1-(4-fluorophenyl)-4-(4-methoxypiperidin-1-yl)-3-(propan-2-yl)-1H-pyrazolo[3,4-b]pyridine-6-carboxylic acid] | 454.3 | 6.50 | 258.8 | 6.25 |  |  |
| CC(C)c1nn(-c2ccc(F)cc2)c2nc(C(=O)O)cc(N3CCC(CO)CC3)c12 [compound 394, 1-(4-fluorophenyl)-4-[4-(hydroxymethyl)piperidin-1-yl]-3-(propan-2-yl)-1H-pyrazolo[3,4-b]pyridine-6-carboxylic acid] | 392.57 | 6.17 | 235.1 | 5.83 |  |  |
| CCCCOC1CCN(c2cc(C(=O)O)nc3c2c(C(C)C)nn3-c2ccc(F)cc2)CC1 [compound 395, 4-(4-butoxypiperidin-1-yl)-1-(4-fluorophenyl)-3-(propan-2-yl)-1H-pyrazolo[3,4-b]pyridine-6-carboxylic acid] | 480.35 | 6.26 |  |  | 223.6 | 6.36 |
| CC(C)COC1CCN(c2cc(C(=O)O)nc3c2c(C(C)C)nn3-c2ccc(F)cc2)CC1 [compound 396, 1-(4-fluorophenyl)-4-[4-(2-methylpropoxy)piperidin-1-yl]-3-(propan-2-yl)-1H-pyrazolo[3,4-b]pyridine-6-carboxylic acid] | 409.8 | 6.52 |  |  | 209.3 | 6.39 |
